From publication PMC12475274, “Harnessing indole scaffolds to identify small-molecule IRE1α inhibitors modulating XBP1 mRNA splicing” (Nature Communications, 2025) come the findings set out here.

“And” between values parts separate entries of the source, which are not always exact repeats. Equal entries are not always repeated. “Also recorded” adds a separate entry of the source. Where two headings read alike, the source gives them in different places. A value given as a limit tells only on which side of the number the result lay.

Series [1] deals with XBP1s protein in A549 cells. In words: Western blot of XBP1s protein level, A549. The series is classed as cell-based, human. The settings on record: 2 h compound, then 1 μg/mL tunicamycin 4 h. As for the experimental part:
(§1) A549 cells and MDA-MB-231 Cells were harvested and seeded into 6-well plates with a density of 8 × 10^5 cells per well and cultured overnight. […]. Protein concentrations were measured using a BCA protein assay kit (Thermo Scientific, 23227) and all samples were diluted to the same protein concentration. Each sample with 40 μg of total protein was loaded onto a 4–15% MP stain-free gel (Bio-Rad, 4568085) and separated in tris-glycine-SDS running buffer. The proteins were transferred onto a 0.45 μm PVDF membrane (Bio-Rad, 1704274) using the Trans-Blot Turbo Transfer System with the preprogrammed standard SD protocol (up to 1.0 A; 25 V; 30 min). Membranes were blocked with 5% skim milk (Roth, T145.2) in PBST buffer, then incubated with primary antibody IRE1α (Cell Signaling Technology, #3294 s, 1:1000), XBP1s (Cell Signaling Technology, #12782 s, 1:1000) GAPDH (Proteintech, 10494-1-AP, 1:6000) overnight at 4 °C with shaking. After incubation, membranes were washed with PBST and incubated with the Goat Anti-Rabbit (Proteintech, SA00001-2, 1:6000) antibody at room temperature for 1 h. After washing with PBST, the membranes were visualized using Amersham ECL Prime Western Blotting Detection Kit (Cytiva, RPN2232) and imaged with a ChemiDoc MP imaging system (Bio-Rad).

In series [2] the test system is IRE1α protein in A549 cells. The series can be described thus: Western blot of IRE1α protein level, A549. The series is classed as cell-based, human. The method, then:
as §1
For orientation: In western blotting, separated proteins are transferred to a membrane and probed.

The test system of series [3] is IRE1α protein in MDA-MB-231 cells. In words: Western blot of IRE1α protein level, MDA-MB-231. The series is classed as cell-based, human. As for the experimental part:
as §1

In a further series the target is T1, p-IRE1α (Homo sapiens, UniProt O75460).
T1 construct: Human IRE1α kinase and RNase domain (residues 547–977) was subcloned into pLIB plasmid; His tag (with TEV cleavage site) (N, cleaved yes); made in house; host or cells: Sf9 insect cells, baculovirus (Bac-to-Bac)
T1 sequence (O75460 547-977): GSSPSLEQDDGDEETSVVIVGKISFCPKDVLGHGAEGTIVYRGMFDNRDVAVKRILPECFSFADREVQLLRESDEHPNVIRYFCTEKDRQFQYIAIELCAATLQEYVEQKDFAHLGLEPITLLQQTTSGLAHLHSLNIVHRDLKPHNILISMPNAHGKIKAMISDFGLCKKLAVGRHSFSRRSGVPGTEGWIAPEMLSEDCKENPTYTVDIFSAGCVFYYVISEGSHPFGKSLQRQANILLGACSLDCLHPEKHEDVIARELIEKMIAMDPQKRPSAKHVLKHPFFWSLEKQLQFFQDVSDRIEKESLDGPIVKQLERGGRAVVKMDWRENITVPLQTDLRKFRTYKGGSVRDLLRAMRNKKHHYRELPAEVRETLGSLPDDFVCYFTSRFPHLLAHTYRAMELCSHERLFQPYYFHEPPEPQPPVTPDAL
In words: Gel-based RNA-cleavage assay. The series is classed as biochemical. The method, then: Purified p-IRE1α with a final concentration of 10 nM was preincubated with the indicated compounds for 30 min at room temperature, then 50 nM FAM and BHQ-labeled XBP1 substrate were added to the reaction. The reaction was further incubated for 45 min at room temperature and then mixed with 6× TBE loading dye (45% H2O, 40 % glycerol, 15% 10× TBE, 0.1% bromphenol blue). 5 μL sample was loaded to 15% pre-runed urea-PAGE, and the gel was run in pre-warmed (~60 °C) 1× TBE buffer buffer in the dark. The gel fluorescence was detected and imaged using the ChemiDoc MP imaging system (Bio-Rad).

In a further series the target is IRE1α (ERN1) (Homo sapiens, UniProt O75460). In words: LanthaScreen Eu kinase binding assay, IRE1α. Particulars: for inhibition at 5.56 µM: Conc. 5560 nM; for inhibition at 5.56 µM / inhibition at 16.7 µM / inhibition at 50 µM: duplicates; for inhibition at 16.7 µM: Conc. 16700 nM; for inhibition at 50 µM: Conc. 50000 nM. As for the experimental part: LanthaScreen^TM Eu kinase binding assays were conducted by SelectScreen Kinase Profiling Services (Thermo Fisher) using Alexa Fluor conjugated kinase tracer, tagged kinase protein, and Eu-labeled anti-tag antibody. The binding of the tracer to the kinase will form the tracer-kinase complex, resulting in a high FRET signal with the Eu-labeled anti-tag antibody. Displacement of the tracer by a kinase inhibitor led to a decreased FRET signal. […] Buffer A containing 50 mM HEPES pH 7.5, 0.01% BRIJ-35, 10 mM MgCl2, and 1 mM EGTA was used.
Sequence of IRE1α (ERN1) (O75460 19-977): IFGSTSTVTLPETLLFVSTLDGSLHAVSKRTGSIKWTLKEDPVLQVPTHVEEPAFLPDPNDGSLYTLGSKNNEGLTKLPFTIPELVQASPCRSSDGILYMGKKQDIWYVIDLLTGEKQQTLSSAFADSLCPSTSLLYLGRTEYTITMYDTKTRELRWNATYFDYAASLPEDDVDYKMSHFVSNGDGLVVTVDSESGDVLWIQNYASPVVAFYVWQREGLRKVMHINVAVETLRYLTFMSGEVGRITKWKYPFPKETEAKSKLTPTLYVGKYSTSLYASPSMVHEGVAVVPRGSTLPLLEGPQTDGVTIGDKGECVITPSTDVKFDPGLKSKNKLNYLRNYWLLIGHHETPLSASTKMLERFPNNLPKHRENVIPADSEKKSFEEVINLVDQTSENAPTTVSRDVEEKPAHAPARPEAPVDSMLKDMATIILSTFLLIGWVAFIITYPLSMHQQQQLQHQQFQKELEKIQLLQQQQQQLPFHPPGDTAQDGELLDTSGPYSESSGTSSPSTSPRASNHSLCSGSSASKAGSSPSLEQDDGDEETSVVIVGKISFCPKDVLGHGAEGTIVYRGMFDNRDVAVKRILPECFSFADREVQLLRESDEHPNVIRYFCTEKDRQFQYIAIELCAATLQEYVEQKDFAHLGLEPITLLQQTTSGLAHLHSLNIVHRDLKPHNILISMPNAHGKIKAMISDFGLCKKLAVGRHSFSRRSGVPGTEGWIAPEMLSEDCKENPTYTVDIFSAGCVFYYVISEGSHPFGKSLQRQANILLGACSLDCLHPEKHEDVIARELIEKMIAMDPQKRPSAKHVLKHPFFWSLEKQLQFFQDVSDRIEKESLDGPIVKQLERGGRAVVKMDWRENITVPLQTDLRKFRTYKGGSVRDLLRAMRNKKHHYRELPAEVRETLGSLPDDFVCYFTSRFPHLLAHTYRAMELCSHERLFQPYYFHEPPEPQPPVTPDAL
Kinase profiling was conducted by the SelectScreen Kinase Profiling Services (Thermo Fisher), using Z′-LYTE, Adapta, or LanthaScreen Eu Kinase Binding Assay for different kinases. The kinome phylogenetic tree was generated using the KinMap web portal.
(In general: In TR-FRET formats the signal depends on donor and acceptor labels being close together.)

Series [4] deals with XBP1 mRNA splicing in A549 cells. The series can be described thus: RT-qPCR of ER stress-induced XBP1 mRNA splicing, A549. The series is classed as cell-based, human. Particulars: for Relative XBP1s/Actin: Fig. 7a, 0.5μg/mL Tm, individual replicates. As for the experimental part:
A549 cells, HCT 116 cells, and HT-29 cells were collected and seeded in 6-well plates at a density of 5 × 10^5 cells per well and cultured overnight to attach, then treated with compound or DMSO for 2 h, then 0.5 μg/mL final concentration of tunicamycin (Tm, MP Biomedi, 0215002805) were added to induce the ER stress for 2 h. After treatment, total RNA was purified using an RNeasy mini kit (Qiagen, 74106). 500 ng of total RNA was used for reverse transcription using the High-Capacity cDNA Reverse Transcription Kits (Thermo Fisher, 4368814). cDNA was diluted 1: 5 using RNase-free water, and 1 μL CDNA was used for each qPCR reaction. The qPCR was performed using PowerUp™ SYBR™ Green Master Mix (Thermo Fisher, A25742) with 10 µL reaction volume using Bio-Rad CFX96 Real-Time PCR Detection System following the standard cycling mode (primer Tm ≥ 60 °C) on the manufacturer’s protocol. Data was analyzed using the 2^- ΔΔCt method. The primers used are listed in Supplementary Table S3. The inhibition % was calculated by using the equation: inhibition% = 100× (normalized Tm control - normalized of the sample)/(normalized Tm control - normalized DMSO control). Tm control: Cells treated with tunicamycin; DMSO control: Cells treated with DMSO only.
For orientation: Quantitative PCR measures a nucleic acid by following its amplification.

The next series has as its system A549 cells. In words: Cell viability assay (CCK-8), A549. The series is classed as cell-based, human. The settings on record: A549; for inhibition at 50 µM: Homo sapiens, read-out: antiproliferation, inhibition at highest tested concentration. As for the experimental part:
(§2) Cells were collected and seeded into 96-well plates at a density of 2000–4000 cells per well and cultured overnight to allow cells to adhere. After adherence, cells were treated with the indicated compounds for 72 h. Then 20 μL CCK-8 solution (Vazyme, A311) was added into each well and incubated at 37 °C for 2–4 h. Absorbance was detected at a wavelength of 450 nm using a TECAN plate reader. Cell viability was calculated with the equation: Cell viability (%) = 100(Absorbance of treated cell - Absorbance of Blank control)/ (Absorbance of DMSO-treated cells - Absorbance of Blank control); Blank control: medium and CCK-8 solution, no cells.

Another series deals with HT-29 cells. In words: Cell viability assay (CCK-8), HT-29. The settings on record: HT-29; for inhibition at 50 µM: Homo sapiens, read-out: antiproliferation, inhibition at highest tested concentration. The series is classed as cell-based, human. As for the experimental part:
as §2

[5] abbreviates: read-out: IRE1a Kinase Displacement(%).
Where [6] appears, read: IRE1α kinase domain, read-out: IC50 (kinase binding), LanthaScreen Eu kinase binding.

Consider `CCOC(=O)Nc1cccc2c(Oc3ncccc3-c3ccnc(N[C@H]4CCCNC4)n3)c(C)ccc12` [Compound G1749, reference compound], for which the “effect on ER stress-induced XBP1s protein” value in series [1] is on record as “partially inhibited”. The “effect on IRE1α protein level” value in series [2] and in series [3] was “did not affect” each time.

As to `COc1ccc2c(c1)c(CCC(=O)O)c(C)n2C(=O)c1ccc(Cl)cc1` [IA01], the “inhibition of p-IRE1α RNase activity in gel-based cleavage assay” value (shortened to “inhibition of p-IRE1α RNase activity”) against p-IRE1α was “concentration-dependently inhibited”. On IRE1α (ERN1) (setting [5]), the inhibition at 5.56 µM was found to be 50%, the inhibition at 16.7 µM was found to be 63% and the inhibition at 50 µM came to 70%. For the same compound, the IC50 at IRE1α (ERN1) (setting [6]) was found to be 2.47 µM.

As for `COc1ccc2c(c1)c(CCC(=O)O)c(C)n2C(=O)c1ccccc1` [IA64], the “inhibition of p-IRE1α RNase activity” value on p-IRE1α is “inhibited p-IRE1α activity; also recorded: concentration-dependently inhibited”. For the same compound, on IRE1α (ERN1) (setting [5]), the inhibition at 5.56 µM amounted to 104%, the inhibition at 16.7 µM came to 98% and the inhibition at 50 µM is 109%. The IC50 at IRE1α (ERN1) (setting [6]) came to 1.1 µM.

`Cc1ccc2c(NS(=O)(=O)c3ccccc3Cl)cccc2c1Oc1ncccc1-c1ccnc(N[C@H]2CCCNC2)n1` [KIRA8]: the “effect on IRE1α protein level” value in series [2] and in series [3] was “did not affect” each time.

For the compound `Cc1c(CCC(=O)O)c2cc(Br)ccc2n1C(=O)c1ccccc1` [IA107], at p-IRE1α, the “inhibition of p-IRE1α RNase activity” value is on record as “concentration-dependently inhibited”. Also, the inhibition at 5.56 µM on IRE1α (ERN1) (setting [5]) was 88%. Besides, on IRE1α (ERN1) (setting [5]), the inhibition at 16.7 µM is 94%. Further, the inhibition at 50 µM at IRE1α (ERN1) (setting [5]) was 96%; with A549 cells it was under 30%; in the series on HT-29 cells it was under 30%. Moreover, the IC50 on IRE1α (ERN1) (setting [6]) amounted to 0.768 µM. On IRE1α (ERN1) (kinase profiling, ERN1, LanthaScreen Binding, IA107 at 5 μM), the inhibition at 5 µM was determined as 91%. Further, in series [4] (A549 cells, 2 h pre-treatment, 2 h tunicamycin), the “inhibition of ER stress-induced XBP1 mRNA splicing” value is “concentration-dependently inhibited”. Moreover, the “Relative XBP1s/Actin” value in series [4] (5 μM) is 3.514 and 3.6054 and 3.452 and 3.1438; in series [4] (10 μM) it was 3.066 and 2.696 and 2.897 and 2.792; in series [4] (25 μM), 2.48 and 2.329 and 2.338 and 2.263; in series [4] (50 μM) it was 1.745 and 1.521 and 1.514 and 1.455. For the same compound, the “cytotoxicity” value with A549 cells and in the series on HT-29 cells was “did not show cytotoxicity” throughout.

In the case of `CCOC(=O)CCc1c(C)n(C(=O)c2ccccc2)c2ccc(Br)cc12` [IAPD1], the figures for the “binding to IRE1α kinase domain in LanthaScreen assay” value at IRE1α (ERN1) and at IRE1α (ERN1) (listed as IADP1) were “did not show any detectable activity” and “did not show any detectable”, respectively. Besides, the inhibition at 0.0686 µM on IRE1α (ERN1) (0.0686 μM, read-out: IRE1a Kinase Displacement(%)) amounted to 11.5%. The IC50 was over 50 µM at IRE1α (ERN1) (read-out: IC50 (Kinase), LanthaScreen kinase binding/displacement) and 0.18 µM in series [4] (Homo sapiens, A549 cells, tunicamycin, read-out: cellular IC50, ER stress-induced XBP1 mRNA splicing). Further, in series [4] (prodrug versus IA107), the “improvement of the cellular activity in inhibiting XBP1 mRNA splicing” value amounted to 50 fold. For the same compound, in series [1], the “effect on ER stress-induced XBP1s protein” value is reported as “inhibited the XPB1s protein level”. The “effect on IRE1α protein level” value in series [2] and in series [3] was “did not affect” each time. For the same compound, the “cytotoxicity” value in the series with A549 cells and in the series on HT-29 cells was “did not show cytotoxicity” throughout. For the same compound, the inhibition at 50 µM in the series with A549 cells and in the series with HT-29 cells was under 30% in each case.
